Assays:
[1] = test system: PR-B cellular signaling pathway; experiment: PR-B pathway activity in paired pre/post letrozole treatment breast cancer samples (GSE10281); format: in vivo, human; conditions: ER positive breast cancer patients, 3 months neoadjuvant treatment
Source text: (§1) Herein, an exemplary Bayesian network model as shown in FIG. 1 was used to model the transcriptional program of the PR cellular signaling pathway in a simple manner. The model consists of three types of nodes: (a) a transcription factor (TF) element (with states “absent” and “present”) in a first layer 1; (b) target genes TG1, TG2, TGn (with states “down” and “up”) in a second layer 2, and; (c) measurement nodes linked to the expression levels of the target genes in a third layer 3. These can be microarray probesets PS1,1, PS1,2, PS1,3, PS2,1, PSn,1, PSn,m (with states “low” and “high”), as preferably used herein, but could also be other gene expression measurements such as RNAseq or RT-qPCR.
(§2) Once the exemplary Bayesian network model is built and calibrated (see below), the model can be used on microarray data of a new sample by entering the probeset measurements as observations in the third layer 3, and inferring backwards in the model what the probability must have been for the TF element to be “present”. Here, “present” is considered to be the phenomenon that the TF element is bound to the DNA and is controlling transcription of the cellular signaling pathway's target genes, and “absent” the case that the TF element is not controlling transcription.
(§3) The models are identified by their target gene list and calibration set. […]

[2] = test system: PR cellular signaling pathway; experiment: PR pathway activity inferred by Bayesian network models, PR-B expressing hMEC breast cell line (GSE24468); format: cell-based; conditions: PR-A, PR-B and PR-A&B models; 10 nM, 16h; versus control treated samples
Source text: as §1, §2, §3

[3] = test system: PR cellular signaling pathway; experiment: PR pathway activity inferred by Bayesian network models, ishikawa IKPR-AB36 endometrium cell line (GSE29435); format: cell-based; conditions: PR-A, PR-B and PR-A&B models; 1 nM, 48h; versus control treated samples
Source text: as §1, §2, §3

[4] = test system: tumor growth in xenograft models; conditions: cited from earlier work

SMILES: N#Cc1ccc(C(c2ccc(C#N)cc2)n2cncn2)cc1 [letrozole]
- Normalized PR-B cellular signaling pathway activity levels, post vs. pre treatment ([1]; non-responders): remain similar to pre-treatment
- Mean normalized PR-B cellular signaling pathway activity, post vs. pre treatment ([1]; responders): goes up

SMILES: CCC(=O)[C@@]1(C)CC[C@H]2[C@@H]3CCC4=CC(=O)CCC4=C3CC[C@@]21C [R5020, promegestone]
- PR cellular signaling pathway activity levels [2]: significantly higher

SMILES: CC(=O)O[C@]1(C(C)=O)CC[C@H]2[C@@H]3C[C@H](C)C4=CC(=O)CC[C@]4(C)[C@H]3CC[C@@]21C [MPA, medroxyprogesterone acetate]
- PR cellular signaling pathway activity levels (odds PR on:off) [3]: significantly higher

SMILES: CC(=O)[C@H]1CC[C@H]2[C@@H]3CCC4=CC(=O)CC[C@]4(C)[C@H]3CC[C@]12C [progesterone, Progesterone]
- Effect over tamoxifen regarding controlling tumor growth [4]: additive effect

— patent publication US20230071390A1, “ASSESSMENT OF PR CELLULAR SIGNALING PATHWAY ACTIVITY USING MATHEMATICAL MODELLING OF TARGET GENE EXPRESSION” (InnoSIGN B.V., priority 2019, published 2023)
